Source: the supplement of paper PMC10307832

Assays:
Assay in all cases: relative viability (nuclei count vs DMSO), 5 days (fraction); higher = more cells survive
[1] = compound: COc1cc2nc(N3CCCN(C)CC3)nc(NC3CCN(Cc4ccccc4)CC3)c2cc1OC + CC(=O)c1c(C)c2cnc(Nc3ccc(N4CCNCC4)cn3)nc2n(C2CCCC2)c1=O [Palbociclib] (partner 0.5 µM)
Outline: (§1)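 Five library-drug doses in √10 steps were combined with a fixed anchor-drug dose, or a single drug was given alone, by pin tool to lung cancer cell lines in 1536-well plates the day after seeding. Nuclei were stained and counted after 5 days. Relative viability is the nuclei count in treated wells over that in vehicle wells, taken as the median of duplicate plates.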

[2] = compound: Cc1cc([C@@H](C)Nc2ccccc2C(=O)O)c2nc(N3CCOCC3)cc(=O)n2c1 [AZD6482] + CC(=O)Nc1cccc(-n2c(=O)n(C3CC3)c(=O)c3c(Nc4ccc(I)cc4F)n(C)c(=O)c(C)c32)c1 [Trametinib] (partner 0.02 µM)
Outline: as §1

[3] = compound: Cc1cc([C@@H](C)Nc2ccccc2C(=O)O)c2nc(N3CCOCC3)cc(=O)n2c1 [AZD6482] + CC(=O)c1c(C)c2cnc(Nc3ccc(N4CCNCC4)cn3)nc2n(C2CCCC2)c1=O [Palbociclib] (partner 0.5 µM)
Outline: as §1

[4] = compound: Cc1cc([C@@H](C)Nc2ccccc2C(=O)O)c2nc(N3CCOCC3)cc(=O)n2c1 [AZD6482] + CS(=O)(=O)N1CCN(Cc2cc3nc(-c4cccc5[nH]ncc45)nc(N4CCOCC4)c3s2)CC1 [Pictilisib] (partner 1 µM)
Outline: as §1

Cell Line | relative viability ([1]; first compound 0.2 µM) | relative viability ([1]; first compound 0.6325 µM) | relative viability ([1]; first compound 2 µM) | relative viability ([1]; first compound 6.325 µM) | relative viability ([2]; first compound 0.08 µM) | relative viability ([2]; first compound 0.253 µM) | relative viability ([2]; first compound 0.8 µM) | relative viability ([2]; first compound 2.53 µM) | relative viability ([2]; first compound 8 µM) | relative viability ([3]; first compound 0.08 µM) | relative viability ([3]; first compound 0.253 µM) | relative viability ([3]; first compound 0.8 µM) | relative viability ([3]; first compound 2.53 µM) | relative viability ([3]; first compound 8 µM) | relative viability ([4]; first compound 0.08 µM) | relative viability ([4]; first compound 0.253 µM) | relative viability ([4]; first compound 0.8 µM) | relative viability ([4]; first compound 2.53 µM) | relative viability ([4]; first compound 8 µM)
HCC-15 | 0.741 | 0.802 | 0.83 | 0.69 | 0.356 | 0.348 | 0.33 | 0.271 | 0.273 | 0.652 | 0.631 | 0.77 | 0.676 | 0.633 | 0.642 | 0.651 | 0.766 | 0.641 | 0.849
HCC-44 | 0.956 | 0.951 | 0.995 | 0.956 | 0.926 | 1.07 | 1.08 | 1.08 | 0.858 | 0.858 | 0.988 | 1.04 | 1.05 | 1.26 | 0.416 | 0.589 | 0.567 | 0.452 | 0.531
HCC-78 | 0.491 | 0.448 | 0.508 | 0.463 | 0.547 | 0.496 | 0.57 | 0.345 | 0.417 | 0.402 | 0.449 | 0.4 | 0.378 | 0.427 | 0.218 | 0.186 | 0.184 | 0.182 | 0.214
HCC-366 | 0.373 | 0.404 | 0.396 | 0.409 | 0.266 | 0.279 | 0.286 | 0.182 | 0.193 | 0.334 | 0.367 | 0.385 | 0.35 | 0.229 | 0.115 | 0.106 | 0.214 | 0.127 | 0.129
HCC-827 | 0.478 | 0.448 | 0.437 | 0.446 | 0.47 | 0.462 | 0.473 | 0.346 | 0.251 | 0.437 | 0.504 | 0.435 | 0.378 | 0.229 | 0.899 | 0.814 | 0.848 | 0.636 | 0.628
HOP-62 | 0.436 | 0.386 | 0.506 | 0.491 | 0.247 | 0.342 | 0.242 | 0.262 | 0.232 | 0.504 | 0.525 | 0.486 | 0.457 | 0.407 | 0.76 | 0.741 | 0.8 | 0.556 | 0.667
IA-LM | – | – | – | – | – | – | – | – | – | – | – | – | – | – | 0.342 | 0.247 | 0.338 | – | 0.366
LC-2-ad | 0.509 | 0.533 | 0.444 | 0.52 | 0.864 | 0.886 | 0.942 | 0.798 | 0.614 | 0.478 | 0.539 | 0.537 | 0.521 | 0.399 | 0.36 | 0.426 | 0.504 | 0.236 | 0.567
LCLC-97TM1 | 0.219 | 0.231 | 0.254 | 0.238 | 0.2 | 0.202 | 0.171 | – | 0.154 | 0.167 | 0.225 | 0.188 | – | 0.172 | 0.246 | 0.175 | 0.245 | 0.176 | 0.146
LCLC-103H | 0.479 | 0.47 | 0.452 | 0.444 | 0.661 | 0.607 | 0.649 | 0.547 | 0.496 | 0.48 | 0.475 | 0.47 | 0.265 | 0.353 | 0.6 | 0.627 | 0.636 | 0.439 | 0.591
LK-2 | 0.658 | 0.884 | 0.841 | 0.598 | 0.616 | 0.649 | 0.782 | 0.623 | 0.564 | 0.732 | 0.698 | 0.688 | 0.54 | 0.342 | 0.574 | – | 0.657 | 0.515 | 0.677
NCI-H522 | 0.716 | 1.18 | 0.859 | 0.915 | 0.872 | 0.711 | 0.841 | 0.549 | 0.566 | 1.07 | 0.933 | 0.691 | 0.805 | 0.825 | – | – | – | – | –
NCI-H596 | – | – | – | – | 0.633 | 0.817 | 0.774 | 0.589 | 0.59 | – | – | – | – | – | 0.324 | 0.349 | 0.508 | 0.343 | 0.441
NCI-H1299 | – | – | – | – | – | – | – | – | – | – | – | – | – | – | 0.615 | 0.684 | 0.742 | 0.394 | 0.678
NCI-H1563 | – | – | – | – | – | – | – | – | – | – | – | – | – | – | 0.617 | 0.575 | 0.646 | 0.677 | 0.673
NCI-H1648 | – | 0.293 | – | 0.272 | 0.483 | 0.434 | 0.491 | – | 0.365 | 0.313 | 0.275 | 0.265 | – | 0.242 | – | – | – | – | –
NCI-H1703 | – | – | – | – | – | – | – | – | – | – | – | – | – | – | 0.245 | 0.239 | 0.233 | 0.204 | 0.191
NCI-H2342 | 0.521 | 0.58 | 0.549 | 0.527 | 0.682 | 0.685 | 0.799 | 0.561 | 0.622 | 0.536 | 0.499 | 0.506 | 0.54 | 0.448 | – | – | – | – | –
SW 900 | 0.538 | 0.442 | 0.566 | 0.46 | 0.851 | 0.591 | 0.703 | 0.43 | 0.568 | 0.474 | 0.434 | 0.348 | 0.355 | 0.389 | – | – | – | – | –
